Measurements: publication PMC7016908 (ACS Omega, 2020)
Several values for one entry are separate records, joined by “and”; a condition that tells them apart may be missing. Equal entries are not always repeated. Entries after “also recorded” stand apart in the source; their conditions may differ.

Tests used:
LSD-trained rats = conditions: ref [6],[7]; cited from earlier work
5-HT2A receptor [1] = conditions: ref Trachsel et al., 2009 [23]; cited from earlier work
5-HT2A receptor [2] = conditions: ref Trachsel et al., 2009 [23]; cited from earlier work; remark: listed apart in the source
human 5-HT2C receptor [3] = biological target: T1, human 5-HT2C receptor (Homo sapiens, UniProt P28335); assay: Functional Ca2+ mobilization fluorescence assay in HeLa-5-HT2C cells; assay type: cell-based; conditions: for agonist character at 5-HT2C receptor: functional assay, in words; for Emax at 100 µM: read-out: % Emax 5-HT2C
T1 sequence (P28335 33-458): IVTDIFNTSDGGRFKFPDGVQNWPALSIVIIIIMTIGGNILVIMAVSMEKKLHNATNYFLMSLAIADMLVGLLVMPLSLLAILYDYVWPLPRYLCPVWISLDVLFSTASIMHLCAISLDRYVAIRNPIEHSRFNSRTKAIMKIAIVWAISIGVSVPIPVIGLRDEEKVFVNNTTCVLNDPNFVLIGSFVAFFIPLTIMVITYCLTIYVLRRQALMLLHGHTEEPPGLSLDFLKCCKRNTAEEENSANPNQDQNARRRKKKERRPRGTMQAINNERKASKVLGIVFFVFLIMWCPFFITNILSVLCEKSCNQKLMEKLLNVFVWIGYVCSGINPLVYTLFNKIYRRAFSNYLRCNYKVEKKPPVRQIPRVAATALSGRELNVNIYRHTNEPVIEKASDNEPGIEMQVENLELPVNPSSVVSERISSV

human 5-HT2C receptor [4] = biological target: T1, human 5-HT2C receptor; assay: Radioligand displacement binding, [3H]mesulergine, HeLa-5-HT2C cell membranes; conditions: for Ki: [3H]mesulergine displacement, mean ± range of two independent assays; for 5-HT2A/2C: ratio of Ki 5-HT2A / Ki 5-HT2C; for selectivity for the 5-HT2C receptor: 5-HT2C over 5-HT2A
human 5-HT2A receptor [5] = biological target: T2, human 5-HT2A receptor (Homo sapiens, UniProt P28223); assay: Functional Ca2+ mobilization fluorescence assay in CHO-5-HT2A cells; assay type: cell-based; conditions: for Emax at 100 µM: read-out: % Emax 5-HT2A, % maximum response (5-HT) at 100 μM; for agonist character at 5-HT2A receptor: in words
T2 sequence (P28223 whole entry): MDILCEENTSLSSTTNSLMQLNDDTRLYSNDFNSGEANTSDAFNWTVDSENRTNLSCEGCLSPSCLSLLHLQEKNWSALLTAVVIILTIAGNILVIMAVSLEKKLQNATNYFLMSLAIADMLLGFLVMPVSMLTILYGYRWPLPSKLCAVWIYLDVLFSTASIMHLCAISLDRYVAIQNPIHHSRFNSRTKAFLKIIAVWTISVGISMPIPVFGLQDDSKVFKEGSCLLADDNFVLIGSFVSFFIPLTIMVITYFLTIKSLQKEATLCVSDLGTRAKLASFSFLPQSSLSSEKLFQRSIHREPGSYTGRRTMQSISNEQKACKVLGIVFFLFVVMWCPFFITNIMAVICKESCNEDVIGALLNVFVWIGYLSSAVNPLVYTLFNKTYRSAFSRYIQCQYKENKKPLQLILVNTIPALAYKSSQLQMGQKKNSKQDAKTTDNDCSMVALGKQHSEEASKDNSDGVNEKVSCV

[6] = hydrochlorides; ref [12],[13]; cited from earlier work
human 5-HT2A receptor [7] = biological target: T2, human 5-HT2A receptor; assay: biochemical; assay type: binding; conditions: for displacement of [3H]ketanserin from the human 5-HT2A receptor: at 10 μM concentration

Row | SMILES | agonist character at 5-HT2C receptor (human 5-HT2C receptor [3]) | Emax at 100 µM (human 5-HT2C receptor [3]) [%] | Ki at the human 5-HT2C receptor (in words) (human 5-HT2C receptor [4]) | Ki (human 5-HT2C receptor [4]; Ki 5-HT2C) | 5-HT2A/2C (human 5-HT2C receptor [4]) | EC50 (human 5-HT2A receptor [5]) [µM] | Emax at 100 µM (human 5-HT2A receptor [5]) [%] | Ki (human 5-HT2A receptor [7]) [µM] | displacement of [3H]ketanserin from the human 5-HT2A receptor (human 5-HT2A receptor [7]) [%] | EC50 (human 5-HT2C receptor [3]) [µM] | also measured
1 | NCCc1c2c(cc3c1OCC3)OCC2 [2C-H-Fly] | – | – | – | – | – | – | – | – | – | – | drug discrimination response (LSD-trained rats): positive drug discrimination response
2 | COc1cc(-c2ccccc2)c(OC)cc1CCN [2C-phenyl, 2-(2,5-dimethoxy-4-phenylphenyl)ethanamine] | – | – | – | – | – | – | – | – | – | – | functional character at 5-HT2A receptor (5-HT2A receptor [1]): antagonist; pKi at the 5-HT2A receptor (5-HT2A receptor [2]): 6.11
3 | Cl.NCCc1ccc2oc3ccccc3c2c1 [Compound 1, 2-(Dibenzo[b,d]furan-2-yl)ethanamine Hydrochloride] | extremely weak partial agonists | 49.1 | submicromolar | 0.737 µM | > > 14 | 22.6 | 66.1 | > 10 | < 50 | – | toxicity (in words) [6]: toxic
4 | CC(N)Cc1ccc2oc3ccccc3c2c1.Cl (centres unmarked) [Compound 2, 1-(Dibenzo[b,d]furan-2-yl)propan-2-amine Hydrochloride] | moderately potent full agonist activity | 112 | submicromolar | 0.474 µM | > > 21 | – | 64 | > 10 | < 50 | 3.52 ± 0.74 | –
5 | COc1cc2c(cc1CCN)oc1ccccc12.Cl [Compound 3, 2-(2-Methoxydibenzo[b,d]furan-3-yl)ethanamine Hydrochloride] | extremely weak partial agonists | 54 | submicromolar | 0.204 µM | > 49 | 32.4 | 58.2 | > 10 | < 50 | 53.2 | agonist character at 5-HT2A receptor (human 5-HT2A receptor [5]; functional assay): very weak partial agonist; toxicity (in words) [6]: toxic
6 | Cl.NCCc1cccc2c1oc1ccccc12 [Compound 4, 2-(Dibenzo[b,d]furan-4-yl)ethanamine Hydrochloride] | moderately potent full agonist activity; also recorded: full agonists | 98 | submicromolar | 0.14 µM | > 71 | 3.33 ± 0.83 | – | > 10 | < 50 | 1.38 ± 0.19 | selectivity for the 5-HT2C receptor (human 5-HT2C receptor [4]): > 70 fold; Ki (human 5-HT2C receptor [4]; pKi 5-HT2C): 0.145 µM; % Emax 5-HT2A (human 5-HT2A receptor [5]; % maximum response (5-HT) at 100 μM): 88.21 ± 2.79%; EC50 at 5-HT2A receptor (in words) (human 5-HT2A receptor [5]; functional assay): low micromolar
7 | COc1ccc2oc3ccccc3c2c1CCN.Cl [Compound 5, 2-(2-Methoxydibenzo[b,d]furan-1-yl)ethanamine Hydrochloride] | full agonists | 106 | – | 0.035 µM and 0.0353 µM | 72 | 14.5 | 59 | 2.55 | – | 0.222 ± 0.041 | selectivity for the 5-HT2C receptor (human 5-HT2C receptor [4]): > 70 fold; agonist character at 5-HT2A receptor (human 5-HT2A receptor [5]; functional assay): partial agonist; times weaker as agonist at 5-HT2A than at 5-HT2C (human 5-HT2A receptor [5]; functional potency 5-HT2A vs 5-HT2C): 70 times; Ki at the h5-HT2A receptor (in words) (human 5-HT2A receptor [7]): low micromolar
